Source: PMC4949196, “Binding interaction of a gamma-aminobutyric acid derivative with serum albumin: an insight by fluorescence and molecular modeling analysis” (SpringerPlus, 2016)

How the values were obtained:
[1] = biological target: T1, human serum albumin (HSA) (Homo sapiens, UniProt P02768); assay: intrinsic tryptophan fluorescence quenching titration, Langmuir isotherm fit, room temperature, pH […]; assay type: binding
T1 construct: gene ALB

[2] = biological target: T2, bovine serum albumin (BSA) (Bos taurus, UniProt P02769); assay: as above; assay type: binding
T2 construct: gene ALB
T2 sequence (P02769 25-607): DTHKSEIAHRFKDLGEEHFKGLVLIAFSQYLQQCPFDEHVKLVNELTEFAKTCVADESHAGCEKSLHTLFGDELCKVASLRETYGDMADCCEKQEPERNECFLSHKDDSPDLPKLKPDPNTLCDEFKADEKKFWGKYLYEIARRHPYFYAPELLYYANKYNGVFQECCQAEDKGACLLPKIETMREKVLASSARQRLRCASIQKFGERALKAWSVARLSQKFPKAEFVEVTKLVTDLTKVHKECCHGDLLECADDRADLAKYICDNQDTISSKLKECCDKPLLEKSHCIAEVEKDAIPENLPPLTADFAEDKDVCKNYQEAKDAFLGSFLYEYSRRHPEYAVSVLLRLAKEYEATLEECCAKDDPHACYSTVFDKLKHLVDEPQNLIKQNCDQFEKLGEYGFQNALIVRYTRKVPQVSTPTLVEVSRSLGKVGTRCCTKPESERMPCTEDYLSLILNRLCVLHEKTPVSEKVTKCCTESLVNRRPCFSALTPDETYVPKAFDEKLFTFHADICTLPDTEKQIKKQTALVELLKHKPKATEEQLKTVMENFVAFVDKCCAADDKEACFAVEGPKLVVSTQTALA

T1 sequence (P02768 25-609): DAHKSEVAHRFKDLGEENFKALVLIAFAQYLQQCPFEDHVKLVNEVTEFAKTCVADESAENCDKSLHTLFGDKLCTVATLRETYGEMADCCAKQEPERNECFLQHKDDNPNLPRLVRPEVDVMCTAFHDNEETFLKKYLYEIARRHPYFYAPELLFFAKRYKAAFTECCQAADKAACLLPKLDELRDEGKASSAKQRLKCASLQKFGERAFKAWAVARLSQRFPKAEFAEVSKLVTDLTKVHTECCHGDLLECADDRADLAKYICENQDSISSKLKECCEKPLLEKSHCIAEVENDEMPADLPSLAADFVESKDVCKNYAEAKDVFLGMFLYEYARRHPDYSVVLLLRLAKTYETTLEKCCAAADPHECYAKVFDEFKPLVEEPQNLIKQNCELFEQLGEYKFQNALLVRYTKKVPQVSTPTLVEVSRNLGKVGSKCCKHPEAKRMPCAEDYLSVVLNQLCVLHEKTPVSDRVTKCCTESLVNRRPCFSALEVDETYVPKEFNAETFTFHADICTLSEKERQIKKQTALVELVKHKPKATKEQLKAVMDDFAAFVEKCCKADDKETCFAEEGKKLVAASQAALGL

## COC(=O)CCCNC(=O)c1ccc(N(CC(=O)OC(C)(C)C)c2ccc(OC)cc2)cc1 [compound 5, methyl 4-(4-((2-(tert-butoxy)-2-oxoethyl)(4-methoxyphenyl)amino)benzamido)butanoate]
[1]
  Kd: 2.75 µM
[2]
  Kd: 3.85 µM
